In patent US10858312B1, “Gossypol isocyanate ester compounds with antileukemic activities and a method of preparing the same” (SHAANXI PANLONG PHARMACEUTICAL GROUP LIMITED BY SHARE LTD., priority 2020, dated 2020):

Tests used:
Assay type in all cases: cell-based
[1] = system: Jurkat (acute T-cell leukemia); assay: CCK8 growth inhibition of leukemia cells, Jurkat; conditions: for IC50: Homo sapiens, Jurkat, 48 h, read-out: IC50 Jurkat
Description: (§1) Example 6: CCK8 Method to Detect the Growth Inhibitory Effect of Gossypol Isocyanate Ester Compounds on Three Kinds of Leukemia Cells
(§2) Cell lines: Jurkat (acute T-cell leukemia), HL-60 (human promyelocytic leukemia cells), K-562 (chronic myeloid leukemia), provided by the Affiliated Hospital of Guangdong Medical College. The cells were cultured in RPMI1640 medium containing 10% fetal bovine serum, penicillin […], streptomycin 100 mg/L, 37° C., 5% CO2, saturated humidity incubator, and the logarithmic growth phase cells were tested.
(§3) Test method: The logarithmic growth phase leukemia cell lines were taken, counted, and inoculated on a 96-well culture plate at a density of 1×10^5/mL, 100 μL per well. After 24 hours of cultivation, 100 μL of double-concentration medium containing different concentrations of compounds was added to each well. The medium containing the highest concentration of DMSO was used as the solvent control. After 48 hours of drug action, 20 μL of CCK8 color developing solution was added to each well, and the color was developed at 37° C. The OD450 was measured with a microplate reader until the absorbance was about 1.5. The inhibition rate was calculated using the formula: Inhibition Rate (%)=(1−Absorbance Value of Administration Group/Absorbance Value of Control Group)×100%
(§4) The half-inhibitory concentration of cells (IC50) was calculated by the Kou's method.

[2] = system: HL-60 (human promyelocytic leukemia cells); assay: CCK8 growth inhibition of leukemia cells, HL-60; conditions: for IC50: Homo sapiens, HL-60, 48 h, read-out: IC50 HL-60
Description: as §1, §2, §3, §4

[3] = system: K-562 (chronic myeloid leukemia); assay: CCK8 growth inhibition of leukemia cells, K-562; conditions: for IC50: Homo sapiens, K562, 48 h, read-out: IC50 K562
Description: as §1, §2, §3, §4

SMILES	IC50 [1] [µM]	IC50 [2] [µM]	IC50 [3] [µM]	anti-leukemia activity (in words) ([1]; Jurkat cells, CCK8)	anti-leukemia activity (in words) ([2]; HL-60 cells, CCK8)	anti-leukemia activity (in words) ([3]; K562 cells, CCK8)
CCNC(=O)O/C=C1\C(=O)C(O)=C(C(C)C)c2cc(C)c(-c3c(C)cc4c(c3O)/C(=C/OC(=O)NCC)C(=O)C(O)=C4C(C)C)c(O)c21 [Compound 2, (1Z,1′Z)-(1,1′,6,6′-tetrahydroxy-5,5′-diisopropyl-3,3′-dimethyl-7,7′-dioxo-[2,2′-binaphtha-lene]-8,8′(7H,7′H)-diylidene)bis(methanylylidene) bis(ethylcarbamate)]	68.2	92.2	49.1			
Cc1cc2c(c(O)c1-c1c(C)cc3c(c1O)/C(=C/OC(=O)Nc1ccc(N)cc1)C(=O)C(O)=C3C(C)C)/C(=C/OC(=O)Nc1ccc(N)cc1)C(=O)C(O)=C2C(C)C [Compound 3, ((8Z,8′Z)-1,1′,6,6′-tetrahydroxy-5,5′-diisopropyl-3,3′-dimethyl-7,7′-dioxo-[2,2′-binaphthalene]-8,8′(7H,7′H)-diylidene)bis(methaneylylidene) bis((4-aminophenyl)carbamate)]	13	26.6	16.3	active	active	active
Cc1cc(-c2ccc(NC(=O)O/C=C3\C(=O)C(O)=C(C(C)C)c4cc(C)c(-c5c(C)cc6c(c5O)/C(=C/OC(=O)Nc5ccc(-c7ccc(N)c(C)c7)cc5C)C(=O)C(O)=C6C(C)C)c(O)c43)c(C)c2)ccc1N [Compound 5, ((8Z,8′)-1,1′,6,6′-tetrahydroxy-5,5′-diisopropyl-3,3′-dimethyl-7,7′-dioxo-[2,2′-binaphthalene]-8,8′(7H,7′H)-diylidene)bis(methaneylylidene) bis((4′-amino-3,3′-dimethyl-[1,1′-biphenyl]-4-yl)carbamate)]	32.6	28.4	48.8			
Cc1cc2c(c(O)c1-c1c(C)cc3c(c1O)/C(=C/OC(=O)Nc1ccccc1)C(=O)C(O)=C3C(C)C)/C(=C/OC(=O)Nc1ccccc1)C(=O)C(O)=C2C(C)C [Compound 1, (1Z,1′Z)-(1,1′,6,6′-tetrahydroxy-5,5′-diisopropyl-3,3′-dimethyl-7,7′-dioxo-[2,2′-binaphthal-ene]-8,8′(7H,7′H)-diylidene)bis(methanylylidene) bis(phenylcarbamate)]	18.3	31.7	37.1			
Cc1cc2c(c(O)c1-c1c(C)cc3c(c1O)/C(=C/OC(=O)Nc1cccc4c(N)cccc14)C(=O)C(O)=C3C(C)C)/C(=C/OC(=O)Nc1cccc3c(N)cccc13)C(=O)C(O)=C2C(C)C [Compound 4, ((8Z,8′Z)-1,1′,6,6′-tetrahydroxy-5,5′-diisopropyl-3,3′-dimethyl-7,7′-dioxo-[2,2′-binaphthalene]-8,8′(7H,7′H)-diylidene)bis(methaneylylidene) bis((5-aminonaphthalen-1-yl)carbamate)]	21.7	15.9	21.7			
